Columns and labels:
Test in all cases: Test C greenhouse herbicide test, pre- and postemergence
Type in all cases: in vivo
[1] = tested on: blackgrass (Alopecurus myosuroides)
Method in brief: (§1)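 Seeds sown in loam–sand blend treated preemergence; plants in peat-based medium sprayed postemergence at 2–18 cm (1- to 4-leaf stage); chemicals in non-phytotoxic solvent with surfactant. Greenhouse 13–15 d, then visual rating versus controls on 0–100 scale (0 no effect, 100 complete control).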

corn (Zea mays) = tested on: corn (Zea mays)
Method in brief: as §1

[2] = tested on: crabgrass, large (large crabgrass, Digitaria sanguinalis)
Method in brief: as §1

[3] = tested on: foxtail, giant (giant foxtail, Setaria faberii)
Method in brief: as §1

[4] = tested on: galium (catchweed bedstraw, Galium aparine)
Method in brief: as §1

[5] = tested on: johnsongrass (Sorghum halepense)
Method in brief: as §1

[6] = tested on: lambsquarters (Chenopodium album)
Method in brief: as §1

[7] = tested on: morningglory (Ipomoea coccinea)
Method in brief: as §1

[8] = tested on: nutsedge, yellow (yellow nutsedge, Cyperus esculentus)
Method in brief: as §1

[9] = tested on: oilseed rape (Brassica napus)
Method in brief: as §1

[10] = tested on: pigweed (Amaranthus retroflexus)
Method in brief: as §1

[11] = tested on: ryegrass, Italian (Italian ryegrass, Lolium multiflorum)
Method in brief: as §1

soybean (Glycine max) = tested on: soybean (Glycine max)
Method in brief: as §1

[12] = tested on: velvetleaf (Abutilon theophrasti)
Method in brief: as §1

[13] = tested on: waterhemp (common waterhemp, Amaranthus rudis)
Method in brief: as §1

[14] = tested on: wheat (winter wheat, Triticum aestivum)
Method in brief: as §1

[15] = Postemergence, 31 g ai/ha, 0 to 100 scale (0 no effect, 100 complete control)
[16] = Postemergence, 125 g ai/ha, scale 0 to 100, 0 is no effect, 100 is complete control
[17] = Postemergence, 250 g ai/ha, scale 0 to 100, 0 no effect, 100 complete control, 13 to 15 d
[18] = Preemergence, 31 g ai/ha, scale 0 to 100, 0 is no effect, 100 is complete control
[19] = Preemergence, 62 g ai/ha, scale 0 to 100, 0 is no effect, 100 is complete control
[20] = Preemergence, 125 g ai/ha, scale 0 to 100, 0 is no effect, 100 is complete control
[21] = Preemergence, 250 g ai/ha, scale 0 to 100 (0 no effect, 100 complete control)
[22] = postemergence, 62 g ai/ha, scale 0 to 100, 0 no effect, 100 complete control

SMILES: COC(=O)Oc1c(C)nn(C)c(=O)c1-c1c(C)sc2c(C)cc(C)cc12 [Compound 81]
- Blackgrass plant response rating [1, 15]: 60
- Plant response rating, Blackgrass [1, 16]: 90
- Plant response rating, Blackgrass [1, 17]: 90
- Plant response rating, Blackgrass [1, 18]: 60
- Plant response rating, Blackgrass [1, 19]: 80
- Plant response rating, Blackgrass [1, 20]: 90
- Blackgrass plant response rating [1, 21]: 90
- Blackgrass plant response rating [1, 22]: 85
- Corn plant response rating (corn (Zea mays); [15]): 0
- Plant response rating, Corn (corn (Zea mays); [16]): 10
- Plant response rating, Corn (corn (Zea mays); [17]): 0
- Plant response rating, Corn (corn (Zea mays); [18]): 0
- Plant response rating, Corn (corn (Zea mays); [19]): 10
- Plant response rating, Corn (corn (Zea mays); [20]): 20
- Corn plant response rating (corn (Zea mays); [21]): 30
- Corn plant response rating (corn (Zea mays); [22]): 5
- Plant response rating, Crabgrass, Large [2, 16]: 40
- Plant response rating, Crabgrass, Large [2, 17]: 55
- Plant response rating, Crabgrass, Large [2, 18]: 90
- Plant response rating, Crabgrass, Large [2, 19]: 75
- Plant response rating, Crabgrass, Large [2, 20]: 90
- Crabgrass, Large plant response rating [2, 21]: 98
- Crabgrass, Large plant response rating [2, 22]: 35
- Plant response rating, Foxtail, Giant [3, 16]: 90
- Plant response rating, Foxtail, Giant [3, 17]: 90
- Plant response rating, Foxtail, Giant [3, 18]: 80
- Plant response rating, Foxtail, Giant [3, 19]: 98
- Plant response rating, Foxtail, Giant [3, 20]: 98
- Foxtail, Giant plant response rating [3, 21]: 100
- Foxtail, Giant plant response rating [3, 22]: 85
- Plant response rating, Galium [4, 16]: 95
- Plant response rating, Galium [4, 17]: 95
- Plant response rating, Galium [4, 18]: 90
- Plant response rating, Galium [4, 19]: 95
- Plant response rating, Galium [4, 20]: 95
- Galium plant response rating [4, 21]: 95
- Galium plant response rating [4, 22]: 95
- Plant response rating, Johnsongrass [5, 16]: 5
- Plant response rating, Johnsongrass [5, 17]: 70
- Plant response rating, Johnsongrass [5, 18]: 25
- Plant response rating, Johnsongrass [5, 19]: 5
- Plant response rating, Johnsongrass [5, 20]: 45
- Johnsongrass plant response rating [5, 21]: 98
- Johnsongrass plant response rating [5, 22]: 5
- Plant response rating, Lambsquarters [6, 16]: 98
- Plant response rating, Lambsquarters [6, 17]: 100
- Plant response rating, Lambsquarters [6, 18]: 75
- Plant response rating, Lambsquarters [6, 19]: 90
- Plant response rating, Lambsquarters [6, 20]: 85
- Lambsquarters plant response rating [6, 21]: 95
- Lambsquarters plant response rating [6, 22]: 95
- Plant response rating, Morningglory [7, 16]: 100
- Plant response rating, Morningglory [7, 17]: 98
- Plant response rating, Morningglory [7, 18]: 80
- Plant response rating, Morningglory [7, 19]: 85
- Plant response rating, Morningglory [7, 20]: 90
- Morningglory plant response rating [7, 21]: 95
- Morningglory plant response rating [7, 22]: 100
- Plant response rating, Nutsedge, Yellow [8, 16]: 90
- Plant response rating, Nutsedge, Yellow [8, 17]: 90
- Plant response rating, Nutsedge, Yellow [8, 18]: 60
- Plant response rating, Nutsedge, Yellow [8, 19]: 70
- Plant response rating, Nutsedge, Yellow [8, 20]: 80
- Nutsedge, Yellow plant response rating [8, 21]: 95
- Nutsedge, Yellow plant response rating [8, 22]: 85
- Plant response rating, Oilseed Rape [9, 16]: 85
- Plant response rating, Oilseed Rape [9, 17]: 45
- Plant response rating, Oilseed Rape [9, 18]: 0
- Plant response rating, Oilseed Rape [9, 19]: 5
- Plant response rating, Oilseed Rape [9, 20]: 40
- Oilseed Rape plant response rating [9, 21]: 95
- Oilseed Rape plant response rating [9, 22]: 65
- Plant response rating, Pigweed [10, 16]: 85
- Plant response rating, Pigweed [10, 17]: 90
- Plant response rating, Pigweed [10, 18]: 98
- Plant response rating, Pigweed [10, 19]: 95
- Plant response rating, Pigweed [10, 20]: 95
- Pigweed plant response rating [10, 21]: 100
- Pigweed plant response rating [10, 22]: 85
- Plant response rating, Ryegrass, Italian [11, 16]: 90
- Plant response rating, Ryegrass, Italian [11, 17]: 90
- Plant response rating, Ryegrass, Italian [11, 18]: 80
- Plant response rating, Ryegrass, Italian [11, 19]: 90
- Plant response rating, Ryegrass, Italian [11, 20]: 90
- Ryegrass, Italian plant response rating [11, 21]: 90
- Ryegrass, Italian plant response rating [11, 22]: 85
- Plant response rating, Soybean (soybean (Glycine max); [16]): 5
- Plant response rating, Soybean (soybean (Glycine max); [17]): 0
- Plant response rating, Soybean (soybean (Glycine max); [18]): 0
- Plant response rating, Soybean (soybean (Glycine max); [19]): 100
- Plant response rating, Soybean (soybean (Glycine max); [20]): 0
- Soybean plant response rating (soybean (Glycine max); [21]): 0
- Soybean plant response rating (soybean (Glycine max); [22]): 0
- Plant response rating, Velvetleaf [12, 16]: 90
- Plant response rating, Velvetleaf [12, 17]: 90
- Plant response rating, Velvetleaf [12, 18]: 35
- Plant response rating, Velvetleaf [12, 19]: 65
- Plant response rating, Velvetleaf [12, 20]: 85
- Velvetleaf plant response rating [12, 21]: 98
- Velvetleaf plant response rating [12, 22]: 85
- Plant response rating, Waterhemp [13, 16]: 85
- Plant response rating, Waterhemp [13, 17]: 80
- Plant response rating, Waterhemp [13, 18]: 85
- Plant response rating, Waterhemp [13, 19]: 85
- Plant response rating, Waterhemp [13, 20]: 90
- Waterhemp plant response rating [13, 21]: 100
- Waterhemp plant response rating [13, 22]: 60
- Plant response rating, Wheat [14, 16]: 0
- Plant response rating, Wheat [14, 17]: 0
- Plant response rating, Wheat [14, 18]: 0
- Plant response rating, Wheat [14, 19]: 0
- Plant response rating, Wheat [14, 20]: 0
- Wheat plant response rating [14, 21]: 0
- Wheat plant response rating [14, 22]: 0

Reference: patent US10597388B2, “Pyridazinone herbicides” (FMC CORPORATION, priority 2014, dated 2020)
